Literature values in patent publication US20020068684A1, “Stripping and cleaning compositions” (priority 1999, published 2002).

Conditions: from CRC tables

PKa: 9.85
SMILES: Oc1ccccc1O [Catechol]
